Assay results from US4528189A, “Urotensin peptides” (The Salk Institute For Biological Studies, priority 1983, dated 1985).
Read-outs that look alike come from different tables or passages of the source.

Columns and labels:
mesenteric vascular bed [1] = test: blood pressure and vascular dilatation in the monkey; format: in vivo; conditions: for depression of the blood pressure: appears due solely to dilatation of the mesenteric vascular bed
Method: (§1) The urotensin peptides from Examples II and III are examined for effects on the secretion of ACTH and β-endorphin in vitro and also examined in vivo. […] UI activity of the peptides was measured by the isolated rat hind limb assay, Lederis, K. et al. "Effects and Assay of Urotensin I on the Perfused Hind Limb of the Rat", Gen. Comp. Endocrinol., 24:10-16, 1974. In vivo hypotensive activity of extracted peptides was measured in anaesthetized rats, Lederis, K. and Medakovic, M. "Pharmacological Observations on the Hypotensive Action of Extracts of Teleost Fish Urophyses (Urotensin I) in the Rat", Br. J. Pharmacol. 51:315-324, 1974, and in anaesthetized dogs, MacCannell and Lederis, "Dilatation of the Mesenteric Vascular Bed of the Dog Produced by a Peptide, Urotensin I", J. Pharm. Exp. Ther. 203:38-46, 1977.

blood pressure [2] = test: mammalian vasodilatory-hypotensive activity (mesenteric blood flow, systemic blood pressure), species not stated; format: in vivo
Method: as §1
(§2) The peptide having the formula: Ac-[…]NH2 is synthesized.
The peptide having the formula: H-Pro-Pro-Ile-Ser-Ile-Asp-Leu-Thr-Phe-His-Leu-Leu-Arg-Asn-Met-Ile-Glu-Met- Ala-Arg-Ile-Glu-Asn-Glu-Arg-NH2 is synthesized.

mesenteric vascular bed [3] = test: blood pressure and mesenteric vasodilatation in the anaesthetized dog; format: in vivo; conditions: for potency of synthetic peptide versus extracted and purified peptide: anaesthetized dog in vivo; for dilatation of other (non-mesenteric) vascular beds / depression of the blood pressure: dog; for depression of the blood pressure: appears due solely to dilatation of the mesenteric vascular bed; for accompanying change in blood pressure (decrease) / increase in mesenteric flow: pentobarbital-anaesthetized dog, doses of 0.1-0.5 μg
Method: as §1
(§3) In the pentobarbital-anaesthetized dog, the threshold dose of UI for mesenteric vasodilatation, when given close arterially into the cephalic mesenteric A, is between 0.001 and 0.01 μg for both sucker UI (1-41) and for the 4-41 fragment of sucker UI. Doses of 0.1-0.5 μg of both peptides produce a 50-150% increase in mesenteric flow; accompanying changes in blood pressure are very modest (about 10% decrease). […] Comp. Endocrinol. 45:446-452, 1981. Comparison of the two extracted and the two synthetic sucker peptides indicate that synthetic UI(1-41) have 111±16% activity and synthetic UI (4-41) have 123±14% activity, relative to the activity of the respective extracted sucker UI peptides.

blood pressure [4] = test: in vivo hypotensive activity in anaesthetized rats; conditions: rat; vascular dilatation appears less selective
Method: (§4) UI activity in the fractions was measured by the isolated rat hind limb assay, Lederis, K. et al. "Effects and Assay of Urotensin I on the Perfused Hind Limb of the Rat." Gen Comp Endocrinol. 24:10-16, 1974. In vivo hypotensive activity of extracted peptides or those obtained by enzymatic cleavage was measured in anaesthetized rats, Lederis, K. et al. "Pharmacological Observations on the Hypotensive Action of Extracts of Teleost Fish Urophyses (Urotensin I) in the Rat", Br. J. Pharmac. 51:315-324, 1974.
as §1

[5] = system: isolated mesenteric artery strips; test: isolated mesenteric artery strips of the rat
Method: as §3

teleost fish pituitaries = test: secretion of ACTH by teleost fish pituitaries
Method: as §1

isolated rat hind limb = isolated rat hind limb assay
Method: as §4
as §1, with “1977. […]” for “1977.”

[6] = system: ACTH and β-END-LI secretion; test: ACTH and β-END-LI secretion in vivo in several rat preparations
Method: as §1

[7] = system: cultured rat pituitary cells; test: secretion of ACTH and β-endorphin by cultured rat pituitary cells; format: cell-based; conditions: for potency to stimulate the secretion of ACTH and β-endorphin: in vitro; for potency to stimulate ACTH and β-endorphin secretion compared with amunine (CRF): the two peptides substantially indistinguishable from each other
Method: as §1

[8] = comparison of extracted and synthetic sucker peptides (activity relative to extracted peptide); conditions: synthetic versus extracted peptide
Method: as §3

[9] = system: ACTH and β-END-LI secretion; test: secretion of ACTH and β-END-LI, general procedure (Examples V, VI); conditions: general procedure of Example III as printed
Method: as §1, §2

blood pressure [10] = conditions: reported, Erspamer et al.; cited from earlier work
[11] = system: ACTH and β-endorphin secretion; conditions: reported; cited from earlier work

Molecule	dilatation of other (non-mesenteric) vascular beds (mesenteric vascular bed [1])	depression of the blood pressure (mesenteric vascular bed [1])	vasodilatory-hypotensive activity (mesenteric blood flow, systemic blood pressure) (blood pressure [2])	potency of synthetic peptide versus extracted and purified peptide (mesenteric vascular bed [3])	dilatation of other (non-mesenteric) vascular beds (mesenteric vascular bed [3])	depression of the blood pressure (mesenteric vascular bed [3])	accompanying change in blood pressure (decrease) (mesenteric vascular bed [3])	increase in mesenteric flow (mesenteric vascular bed [3])	fall in blood pressure (blood pressure [4])	potency of synthetic peptide versus extracted and purified peptide [5]	potency in stimulating the secretion of ACTH relative to amunine (teleost fish pituitaries)	potency of synthetic peptide versus extracted and purified peptide (isolated rat hind limb)	stimulation of ACTH and β-END-LI secretion in vivo [6]	potency to stimulate the secretion of ACTH and β-endorphin [7]	potency to stimulate ACTH and β-endorphin secretion compared with amunine (CRF) [7]	activity relative to the activity of the respective extracted sucker UI peptide [8] [%]	also measured
H-NDDPPISIDLTFHLLRNMIEMARIENEREQAGLNRKYLDEV-NH2 [urotensin I]	neither peptide dilates other vascular beds	modest but sustained depression of the blood pressure	substantially lower blood presssure for an extended time period	equipotent with the extracted and purified peptides	neither peptide dilates other vascular beds	modest but sustained depression of the blood pressure	about 10%	50-150%	more marked fall in blood pressure	equipotent with the extracted and purified peptides	several times more potent than amunine	equipotent with the extracted and purified peptides	stimulate ACTH and β-END-LI secretion in vivo	high potency	comparable to amunine (CRF)	111±16	stimulation of ACTH and β-END-LI secretion in vivo ([6]; listed as synthetic UI): stimulate ACTH and β-endorphin activies in vitro and in vivo; potency to stimulate the secretion of ACTH and β-endorphin ([7]; listed as synthetic UI): stimulate ACTH and β-endorphin activies in vitro
Ac-APPISIDLTFHLLRNMIEMARIENEREQAGLNRKYLDEV-NH2 [V]	–	–	very significant increasing of mesenteric blood flow and lowering of systemic blood pressure	–	–	–	–	–	–	–	–	–	–	–	–	–	stimulation of the secretion of ACTH and β-END-LI [9]: stimulates the secretion of ACTH and β-END-LI
H-PPISIDLTFHLLRNMIEMARIENER-NH2 [VI, H-Pro-Pro-Ile-Ser-Ile-Asp-Leu-Thr-Phe-His-Leu-Leu-Arg-Asn-Met-Ile-Glu-Met- Ala-Arg-Ile-Glu-Asn-Glu-Arg-NH2]	–	–	significant mammalian vasodilatory-hypotensive activity	–	–	–	–	–	–	–	–	–	–	–	–	–	–
H-PPISIDLTFHLLRNMIEMARIENEREQAGLNRKYLDEV-NH2 [urotensin I (4-41)]	neither peptide dilates other vascular beds	modest but sustained depression of the blood pressure	substantially lower blood presssure for an extended time period	equipotent with the extracted and purified peptides	neither peptide dilates other vascular beds	modest but sustained depression of the blood pressure	about 10%	50-150%	more marked fall in blood pressure	equipotent with the extracted and purified peptides	several times more potent than amunine	equipotent with the extracted and purified peptides	stimulate ACTH and β-END-LI secretion in vivo	high potency	comparable to amunine (CRF)	123±14	stimulation of ACTH and β-END-LI secretion in vivo ([6]; listed as UI 4-41): stimulate ACTH and β-endorphin activies in vitro and in vivo; potency to stimulate the secretion of ACTH and β-endorphin ([7]; listed as UI 4-41): stimulate ACTH and β-endorphin activies in vitro
CC[C@H](C)[C@H](NC(=O)[C@@H](NC(=O)[C@H](CC(=O)O)NC(=O)[C@H](CC(C)C)NC(=O)[C@H](CC(C)C)NC(=O)[C@H](CC(C)C)NC(=O)[C@H](CCCNC(=N)N)NC(=O)[C@H](CC(N)=O)NC(=O)[C@H](CC(N)=O)NC(=O)[C@H](C)NC(=O)[C@H](C)NC(=O)[C@H](CCC(N)=O)NC(=O)[C@H](CCC(N)=O)NC(=O)[C@H](CCCCN)NC(=O)[C@H](CCC(=O)O)NC(=O)[C@H](CCCCN)NC(=O)[C@H](CCC(=O)O)NC(=O)[C@H](CCC(N)=O)NC(=O)[C@H](CCCCN)NC(=O)[C@H](CCC(=O)O)NC(=O)[C@@H](NC(=O)[C@H](CCC(=O)O)NC(=O)[C@@H](NC(=O)[C@H](CCSC)NC(=O)[C@H](CCCCN)NC(=O)[C@H](CCCNC(=N)N)NC(=O)[C@H](CC(C)C)NC(=O)[C@H](CC(C)C)NC(=O)[C@H](CCC(=O)O)NC(=O)[C@H](CC(C)C)NC(=O)[C@H](CO)NC(=O)[C@H](CC(C)C)NC(=O)[C@H](CC(=O)O)NC(=O)[C@@H](NC(=O)[C@H](CO)NC(=O)[C@@H](NC(=O)[C@@H]1CCCN1C(=O)[C@@H]1CCCN1C(=O)CNC(=O)[C@@H]1CCC(=O)N1)[C@@H](C)CC)[C@@H](C)CC)[C@@H](C)CC)[C@@H](C)CC)[C@@H](C)O)C(N)=O [Sauvagine]	–	–	–	–	–	–	–	–	–	–	–	–	–	–	–	–	lowering blood pressure in mammals (blood pressure [10]): biological activity in lowering blood pressure in mammals; stimulating the secretion of ACTH and β-endorphin [11]: stimulating the secretion of ACTH and β-endorphin
